In paper PMC8998978, “Toward a Treatment of Cancer: Design and In Vitro/In Vivo Evaluation of Uncharged Pyrazoline Derivatives as a Series of Novel SHP2 Inhibitors” (International Journal of Molecular Sciences, 2022):

Key:
[1] = tested on: HCT116 cells; test: Cell viability assay (SRB); assay type: cell-based, human
Description: Human colon cancer cell line HCT116, hepatoma cell lines HepG2 and BEL-7402, lung adenocarcinoma cell lines NCI-H1975 and 95-D, pancreatic cancer cell line Panc-1, breast cancer cell line MDA-MB-231, NSCLC cell line NCI-H1299, ovarian cancer cell line SK-OV-3, leukemia cell line K562, glioma cell line U87, colon epithelial cell line NCM460 and umbilical vein endothelial cell line HUVEC were purchased from the Institute of Biochemistry and Cell Biology, Chinese Academy of Sciences (Shanghai, China). HCT116 cell line was cultured in McCoy’s 5A medium (Hyclone, Logan, UT, USA). HepG2, 95-D, Panc-1, MDA-MB-231, BEL-7402, SK-OV-3, U87 and NCM460 cell lines were cultured in DMEM-High glucose medium (Hyclone, Logan, UT, USA). NCI-H1975, NCI-H1299 and HUVEC cell lines were cultured in RPMI 1640 medium (Hyclone, Logan, UT, USA). K562 cell line was cultured in IMDM medium (Hyclone, Logan, UT, USA). […]
The inhibition rate of cell viability was detected by 3-(4,5-dimethyl-2-thiazolyl)-2,5-diphenyl-2-H-tetrazolium bromide (MTT, Solarbio, Beijing, China) or Sulforhodamine B (SRB, Sigma-Aldrich, St. Louis, MO, USA) assay. […] The absorbance at 570 nm was measured in a multimode reader (Berthold Technologies, Germany). […] Finally, Tris–HCl solution was added, and the absorbance at 515 nm was detected in a multimode reader (Berthold Technologies, Germany).

[2] = tested on: HepG2 cells; test: Cell viability assay (SRB); assay type: cell-based; settings: Homo sapiens, HepG2, 72 h
Description: (§1) Human colon cancer cell line HCT116, hepatoma cell lines HepG2 and BEL-7402, lung adenocarcinoma cell lines NCI-H1975 and 95-D, pancreatic cancer cell line Panc-1, breast cancer cell line MDA-MB-231, NSCLC cell line NCI-H1299, ovarian cancer cell line SK-OV-3, leukemia cell line K562, glioma cell line U87, colon epithelial cell line NCM460 and umbilical vein endothelial cell line HUVEC were purchased from the Institute of Biochemistry and Cell Biology, Chinese Academy of Sciences (Shanghai, China). HCT116 cell line was cultured in McCoy’s 5A medium (Hyclone, Logan, UT, USA). HepG2, 95-D, Panc-1, MDA-MB-231, BEL-7402, SK-OV-3, U87 and NCM460 cell lines were cultured in DMEM-High glucose medium (Hyclone, Logan, UT, USA). NCI-H1975, NCI-H1299 and HUVEC cell lines were cultured in RPMI 1640 medium (Hyclone, Logan, UT, USA). K562 cell line was cultured in IMDM medium (Hyclone, Logan, UT, USA). All of them were incubated in the medium with 10% fetal bovine serum (PAN, Adenbach, Bavaria, Germany) and 1% penicillin-streptomycin (Gibco-Invitrogen, Grand Island, NY, USA) under a humidified atmosphere of 5% CO2 at 37 °C.
(§2) The inhibition rate of cell viability was detected by 3-(4,5-dimethyl-2-thiazolyl)-2,5-diphenyl-2-H-tetrazolium bromide (MTT, Solarbio, Beijing, China) or Sulforhodamine B (SRB, Sigma-Aldrich, St. Louis, MO, USA) assay. In MTT assay, the suspension cells were inoculated in 96-well plates at the density of 5000 cells per well, and incubated with 4o at indicated concentrations dissolved in DMSO for 72 h. Each well was incubated with MTT solution (5 mg/mL) at 37 °C for 4 h, DMSO was added and incubated overnight at 37 °C. The absorbance at 570 nm was measured in a multimode reader (Berthold Technologies, Germany). In SRB assay, adherent cells were seeded in 96-well plates (5000 cells per well). After 24 h, the cells were treated with 4o for 72 h, and then fixed with precooling 10% TCA solution at 4 °C for 1 h. After washing and drying, SRB staining was added for 15 min, and then washed and dried by 1% acetic acid. Finally, Tris–HCl solution was added, and the absorbance at 515 nm was detected in a multimode reader (Berthold Technologies, Germany).

[3] = tested on: MDA-MB-231 cells; test: Cell viability assay (SRB); assay type: cell-based; settings: Homo sapiens, MDA-MB-231, 72 h
Description: as §1, §2

[4] = tested on: NCI-H1975 cells; test: Cell viability assay (SRB); assay type: cell-based; settings: Homo sapiens, NCI-H1975, 72 h
Description: as §1, §2

[5] = tested on: U87 cells; test: Cell viability assay (SRB); assay type: cell-based; settings: Homo sapiens, U-87 MG, U87, 72 h
Description: as §1, §2

[6] = tested on: HCT116 cells xenograft; test: Anti-tumor activity in vivo, HCT116 xenograft model; set-up: species or system BALB/c-nude mice
Procedure: Male BALB/c-nude mice (Jinan Pengyue Experimental Animal Breeding Co., Ltd., Jinan, China), 5 weeks of age, were used. The mice were housed in a specific pathogen-free room with temperature controlled (22 ± 2 °C), humidity (55 ± 10%) and a light/dark cycle of 12 h, providing sterile food and water. The HCT116 cells xenograft model was conducted, and 1 × 10^7 HCT116 cells were subcutaneously injected into the right armpit of mice. The tumor volume of mice was measured every three days to evaluate the tumor growth. When the tumor volume reached about 100 mm^3, the mice were randomly divided into four groups (n = 6), and treated with vehicle (0.5% CMC-Na solution) or 4o (25, 50 mg/kg) by gavage once a day for 13 consecutive days. A total of 25 mg/kg 5-FU was used as a positive control. The body weight of mice was measured every three days. The length (L) and width (W) of tumors were measured by electronic caliper every three days. The volume (V) was calculated as follows: V = (L × W^2)/2. When the tumor volume reached about 1000 mm^3, the tumors were excised. Immunohistochemical analysis were used to evaluate the related protein levels.

[7] = Acute toxicity assay; assay type: in vivo; settings: for Mortality: 14 days observation
Procedure: (§3) In acute toxicity assay, 18 female Kunming mice (Jinan Pengyue Experimental Animal Breeding Co., Ltd., Jinan, China), 18–22 g of weight, were used. The mice were randomly divided into three groups (n = 6), and treated with vehicle (0.5% CMC-Na solution) or 4o (300, 2000 mg/kg) by gavage once. The body weight, toxicity effect, general behavior and mortality of mice were monitored within 14 days after 4o treatment. In subacute toxicity assay, 10 male and 10 female Kunming mice (Jinan Pengyue Experimental Animal Breeding Co., Ltd., Jinan, China), 18–22 g of weight, were used. The mice were randomly divided into two groups with 5 males and 5 females, and were orally treated with vehicle (0.5% CMC-Na solution) or 4o (1000 mg/kg) once a day for 28 days. […]. After 28 days of treatment, the mice were anaesthetized with isoflurane and killed by decapitation. The heart, liver, spleen and kidney tissues were collected, and histologically analyzed by H&E staining.

[8] = Subacute toxicity assay; assay type: in vivo
Procedure: as §3

With `CCOc1ccc(Oc2ccc(C3=NN(C4=NC(=O)CS4)C(c4cc(O)c(O)c(Br)c4Br)C3)cc2)cc1` (centres unmarked) [Compound 4o, 2-(5-(2,3-dibromo-4,5-dihydroxyphenyl)-3-(4-(4-ethoxyphenoxy)phenyl)-4,5-dihydro-1H-pyrazol-1-yl)thiazol-4(5H)-one] as the molecule, how does the “Growth inhibition of HCT116 cells” value ([1]; 24, 48 and 72 h) read?
The value was “time- and dose-dependent manner”.

And the IC50 ([1]; Homo sapiens, HCT-116, HCT116, 72 h)?
Its IC50 is 2.64 ± 0.17 µM.

What about the IC50 [2] of the same molecule?
The IC50 was 3.8 ± 0.22 µM.

And the IC50 [3]?
Its IC50 is 6.34 ± 0.37 µM.

What about the IC50 [4] of the same molecule?
The IC50 was 5.29 ± 0.6 µM.

What about the IC50 [5] of the same molecule?
Its IC50 is 10.2 ± 0.39 µM.

What about the Tumor inhibition rate ([6]; 4o 25 mg/kg by gavage once daily, 13 days) of the same molecule?
Its Tumor inhibition rate is 58.8%.

And the Tumor inhibition rate ([6]; 4o 50 mg/kg by gavage once daily, 13 days)?
The Tumor inhibition rate was 67.2%.

And the “Effect on body weight of tumor-bearing mice” value ([6]; 4o 25, 50 mg/kg or 5-FU 25 mg/kg, 13 days)?
The value was “did not have any obvious effect on the body weight”.

And the “Expression of Ki67 and p-Erk in tumors (immunohistochemistry)” value ([6]; 4o 25, 50 mg/kg, 13 days)?
Its value is “significantly decreased”.

And the Tumor weight ([6]; 4o 25, 50 mg/kg, after 13 days, versus vehicle)?
The Tumor weight was “much lighter”.

And the “Body Weight (g) Day 0” value ([7]; 300 mg/kg single oral dose)?
The value was 24.41 ± 0.64 g.

What about the “Body Weight (g) Day 7” value ([7]; 300 mg/kg single oral dose) of the same molecule?
The value was 28.78 ± 0.78 g.

What about the “Body Weight (g) Day 14” value ([7]; 300 mg/kg single oral dose) of the same molecule?
Its value is 30.75 ± 0.99 g.

And the Mortality ([7]; 300 mg/kg single oral dose)?
The Mortality was 0/6.

What about the “Body Weight (g) Day 0” value ([7]; 2000 mg/kg single oral dose) of the same molecule?
Its value is 25.19 ± 1.45 g.

What about the “Body Weight (g) Day 7” value ([7]; 2000 mg/kg single oral dose) of the same molecule?
The value was 30.51 ± 0.88 g.

And the “Body Weight (g) Day 14” value ([7]; 2000 mg/kg single oral dose)?
The value was 31.43 ± 1.09 g.

And the Mortality ([7]; 2000 mg/kg single oral dose)?
The Mortality was 0/6.

And the “Body Weight (g) Day 0” value ([8]; 1000 mg/kg orally once a day)?
Its value is 19.08 ± 0.95 g.

What about the “Body Weight (g) Day 7” value ([8]; 1000 mg/kg orally once a day) of the same molecule?
The value was 27.52 ± 1.77 g.

What about the “Body Weight (g) Day 14” value ([8]; 1000 mg/kg orally once a day) of the same molecule?
Its value is 33.41 ± 3.49 g.

What about the “Body Weight (g) Day 21” value ([8]; 1000 mg/kg orally once a day) of the same molecule?
The value was 35.49 ± 4.52 g.

And the “Body Weight (g) Day 28” value ([8]; 1000 mg/kg orally once a day)?
The value was 36.63 ± 4.84 g.

What about the Mortality ([8]; 1000 mg/kg orally once a day, 28 days) of the same molecule?
Its Mortality is 0/10.

And the “H&E staining of heart, liver, spleen and kidney” value ([8]; 1000 mg/kg orally, 28 days)?
Its value is “no significant change in the cell morphology”.
